Test results as given in patent US12371421B2, “Solid forms of a PARP7 inhibitor” (Ribon Therapeutics, Inc., priority 2019, dated 2025).

Experiments:
[1] = system: CT26 colon cancer syngeneic model; test: Tumor growth in murine CT26 colon cancer syngeneic model; format: in vivo, BALB/c mice; conditions: BID 125-500 mg/kg or QD 500 mg/kg for 21 days; P<0.0001 vs vehicle (Day 16)
Protocol: For the CT26 study, BALB/c mice were inoculated subcutaneously in the right flank with CT26 cells for tumor development. After 5 days of cell inoculation, mice with 36-79 mm^3 tumors were randomized into treatment groups with mean tumor volumes of 54 mm^3. […] Tumor volumes were determined by manual calipers every 2-3 days. Mean tumor volume and SEM are plotted. BID: twice a day; PO: per oral administration; QD: once a day; SC: per subcutaneous administration. […] Statistical analysis for tumor growth inhibition (TGI) was performed when at least 8 of the 10 mice were remaining in the vehicle group (Day 16). Statistical significance is calculated using two-way ANOVA followed by Bonferroni post-tests in which the treatment groups were compared to vehicle control (**** P<0.0001).

COLO 680N = test: Cancer cell growth inhibition (CellTiter-Glo); format: cell-based; conditions: Homo sapiens, esophageal squamous cell carcinoma, 144 hours
Protocol: (§1) Cells were plated into 384-well plates at a pre-specified density in fetal bovine serum-containing media. Cells were treated with compound or vehicle (DMSO) 24 hrs later, and a day zero plate was collected for analysis. Test compound plates were incubated continuously for 144 hours before cells and cell growth was assessed using a luminescent cell viability assay (CellTiter-Glo, Promega). The GI50 was determined by correcting for the cell count at time zero (time of treatment) and plotting data as percent growth relative to vehicle-treated cells.

KMRC-3 = test: Cancer cell growth inhibition (CellTiter-Glo); format: cell-based; conditions: KMRC-3, clear cell renal carcinoma; 144 hours
Protocol: as §1

HCC827 = test: Cancer cell growth inhibition (CellTiter-Glo); format: cell-based; conditions: Homo sapiens; HCC827, lung adenocarcinoma; 144 hours
Protocol: as §1

TUHR10TKB = test: Cancer cell growth inhibition (CellTiter-Glo); format: cell-based; conditions: renal cell carcinoma, 144 hours
Protocol: as §1

CFPAC-1 = test: Cancer cell growth inhibition (CellTiter-Glo); format: cell-based; conditions: Homo sapiens; CFPAC-1, pancreatic ductal adenocarcinoma; 144 hours
Protocol: as §1

HPAF-II = test: Cancer cell growth inhibition (CellTiter-Glo); format: cell-based; conditions: Homo sapiens, pancreatic adenocarcinoma, 144 hours
Protocol: as §1

KALS-1 = test: Cancer cell growth inhibition (CellTiter-Glo); format: cell-based; conditions: Homo sapiens; KALS-1, glioblastoma; 144 hours
Protocol: as §1

MSTO-211H = test: Cancer cell growth inhibition (CellTiter-Glo); format: cell-based; conditions: Homo sapiens, biphasic mesothelioma, 144 hours
Protocol: as §1

IA-LM = test: Cancer cell growth inhibition (CellTiter-Glo); format: cell-based; conditions: large cell lung carcinoma, 144 hours
Protocol: as §1

H4 = test: Cancer cell growth inhibition (CellTiter-Glo); format: cell-based; conditions: H4, neuroglioma; 144 hours
Protocol: as §1

MCAS = test: Cancer cell growth inhibition (CellTiter-Glo); format: cell-based; conditions: ovarian mucinous cystadenocarcinoma, 144 hours
Protocol: as §1

NCI-H1648 = test: Cancer cell growth inhibition (CellTiter-Glo); format: cell-based; conditions: Homo sapiens; NCI-H1648, lung adenocarcinoma; 144 hours
Protocol: as §1

NCI-H1437 = test: Cancer cell growth inhibition (CellTiter-Glo); format: cell-based; conditions: Homo sapiens; NCI-H1437, lung adenocarcinoma; 144 hours
Protocol: as §1

CAL-27 = test: Cancer cell growth inhibition (CellTiter-Glo); format: cell-based; conditions: Homo sapiens; CAL-27, tongue squamous cell carcinoma; 144 hours
Protocol: as §1

LN-18 = test: Cancer cell growth inhibition (CellTiter-Glo); format: cell-based; conditions: Homo sapiens; LN-18, glioblastoma; 144 hours
Protocol: as §1

[2] = system: NCI-H1373 lung cancer xenograft; test: Tumor growth in human NCI-H1373 lung cancer xenograft; format: in vivo, SCID mice
Protocol: For the NCI-H1373 study, SCID mice were inoculated subcutaneously in the right flank with NCI-H1373 cells for tumor development. After 5 days of tumor growth, mice with 89-148 mm^3 tumors were randomized into treatment groups with mean tumor volumes of 121 mm^3. […] Tumor volumes were determined by manual calipers every 2-3 days. Mean tumor volume and SEM are plotted. QD: once a day; PO: per oral administration. Statistical significance is calculated using two-way ANOVA followed by Bonferroni post-tests in which the treatment groups were compared to vehicle control (****P<0.0001).

C[C@@H](COCCC(=O)N1CCN(c2ncc(C(F)(F)F)cn2)CC1)Nc1cn[nH]c(=O)c1C(F)(F)F [Compound 1, 5-[[(2S)-1-(3-oxo-3-[4-[5-(trifluoromethyl)pyrimidin-2-yl]piperazin-1-yl]propoxy)propan-2-yl]amino]-4-(trifluoromethyl)-2,3-dihydropyridazin-3-one]
Tumor growth (tumor volume) vs vehicle [1]: significantly reduces tumor growth | GI50 (COLO 680N): ≥ 1000 nM | GI50 (KMRC-3): ≥ 1000 nM | GI50 (HCC827): < 100 nM | GI50 (TUHR10TKB): < 100 nM | GI50 (CFPAC-1): 100 to 1000 nM | GI50 (HPAF-II): ≥ 1000 nM | GI50 (KALS-1): ≥ 1000 nM | GI50 (MSTO-211H): ≥ 1000 nM | GI50 (IA-LM): < 100 nM | GI50 (H4): ≥ 1000 nM | GI50 (MCAS): ≥ 1000 nM | GI50 (NCI-H1648): ≥ 1000 nM | GI50 (NCI-H1437): ≥ 1000 nM | GI50 (CAL-27): ≥ 1000 nM | GI50 (LN-18): ≥ 1000 nM | Tumor growth (tumor volume) vs vehicle ([2]; 62.5, 125, 250, 500 mg/kg QD PO for 28 days, P<0.0001 vs vehicle): significantly reduces tumor growth | Tumor regression ([2]; 62.5 to 500 mg/kg once a day for 28 days, oral gavage, all dose levels): complete tumor regression
